# Assay results reported in patent publication US10624920B2, “Use of alginate oligomers in combating biofilms” (Algipharma AS, priority 2007, dated 2020).
# What was measured:
# Type in all cases: cell-based
# [1] = test system: Pseudomonas aeruginosa biofilms; experiment: MBEC assay, overnight Pseudomonas biofilms pretreated overnight with G-fragments and mucin, then antibiotic; conditions: overnight biofilm, mucin 2.5 g/L
# Description: (§1) The MBEC method used was adapted from Moskowitz S M, et al (2004) J Clin Microbiol 42:1915-1922. After retrieval from −80° C. storage, bacterial isolates were grown on BA and then grown overnight in TSB. After dilution of the bacterial cultures to 0.5 McFarland in CAMHB with or without mucin (2.5 g/l), 100 μl was transferred to the wells of a flat-bottom 96-well microtiter plate. In Example 3, bacterial cultures were diluted to 0.5 McFarland in CAMHB with mucin (2.5 g/1) and alginate and 100 μl was transferred to the wells of a flat-bottom 96-well microtiter plate
# (§2) Plates were then wrapped in parafilm to prevent dehydration and incubated at 37° C. to allow biofilm formation. Incubation times and conditions varied as described below.
# (§3) After biofilm formation, planktonic cells and supernatant were removed and each well was then washed with sterile phosphate buffered saline (PBS). After washing, cells were treated with combinations of alginates and/or antibiotics with or without mucin (2.5 g/l) in 100 μl CAMHB. Plates were then wrapped in parafilm and incubated at 37° C. with gentle tilting. Incubation times and conditions varied as described below. The antibiotics and concentration ranges used are shown below.
# (§4) Wells were washed with PBS and 100 μl of each concentration of a serial dilution of antibiotic in CAMHB was then added in duplicate. Plates were again wrapped in parafilm and incubated at 37° C. with gentle tilting overnight.
# (§5) In all MBEC assays final cell number was assessed as follows. Wells were washed with PBS and biofilms resuspended in 100 μl CAMHB by vigorous pipetting. The optical density at 620 nm (OD620) was measured on a microplate reader (FLUOstar OPTIMA, BMG LABTECH) immediately (0 h) and after incubation at 37° C. at 6 h and 24 h.
# (§6) The MBEC value is that concentration of antibiotic that inhibits all growth of the bacteria in the test sample. Bacterial growth is measured by an increase in the absorbance of the sample. Therefore, a reduction in MBEC value is an indication that the sensitivity of the sample to the antibiotic has been increased (i.e. less antibiotic is needed to prevent bacterial growth).
# The MBEC assay described above was followed. Biofilms were generated in plates overnight without mucin. Following a PBS wash, the biofilms were incubated with 0, 1, 2 or 6% G-fragments and mucin overnight. After washing with PBS cells were incubated overnight with antibiotics (amikacin or oxytetracycline) and without mucin. […] 6 hr MBEC values for amikacin and oxytetracycline were halved by 1% G fragments and quartered by 2 and 6% G fragments. 24 hr MBEC values for oxytetracycline were halved by all concentrations of G fragments. 24 hr MBEC values for amikacin were reduced although it was not possible to quantify this reduction.
# [2] = test system: Pseudomonas aeruginosa biofilms; experiment: MBEC assay, Pseudomonas biofilms generated 6 hr with mucin, pretreated overnight with alginate oligomer and mucin, then antibiotic; conditions: 6 hr biofilm with mucin
# Description: as §1, §2, §3, §4, §5, §6
# The MBEC assay described above was followed with mucin present throughout. Biofilms were generated in the presence of mucin during a 6 hour incubation, washed and incubated with G-fragments and mucin overnight. After washing with PBS the cultures were exposed to antibiotics (amikacin, tobramycin, oxytetracycline or a combination of amikacin and oxytetracycline) without mucin. Results are shown graphically in FIG. 4 and in tabulated form in Tables 6 and 7. […] In fact, 6% G fragments caused a the 6 hr MBEC value for oxytetracycline to drop to ⅛th of the control value. The 24 hr MBEC values for amikacin and tobramycin were halved. […]
# [3] = test system: Pseudomonas aeruginosa biofilms; experiment: MBEC assay, Pseudomonas biofilms generated overnight in the presence of mucin and G-fragments, then antibiotic
# Description: as §1, §2, §3, §4, §5, §6
# The MBEC assay described above was followed. Biofilms were generated in plates overnight in the presence of mucin and 0, 1, 2 or 6% G fragments. After washing, biofilms were exposed to oxytetracycline (without mucin) overnight. […] 6 hr MBEC values were halved when 2% and 6% G fragments were used.
# [4] = exposed to 0 G-fragments overnight
# [5] = exposed to 6% G-fragments overnight
# [6] = biofilm generated with mucin 2.5 g/L and G-fragments 0
# [7] = biofilm generated with mucin 2.5 g/L and G-fragments 1%
# [8] = biofilm generated with mucin 2.5 g/L and G-fragments 2%
# [9] = biofilm generated with mucin 2.5 g/L and G-fragments 6%
Compound,MBEC value at 6 hours after overnight exposure to antibiotic ([1]; G-fragments 0),MBEC value at 24 hours after overnight exposure to antibiotic ([1]; G-fragments 0),MBEC value at 6 hours after overnight exposure to antibiotic ([1]; G-fragments 1%),MBEC value at 24 hours after overnight exposure to antibiotic ([1]; G-fragments 1%),MBEC value at 6 hours after overnight exposure to antibiotic ([1]; G-fragments 2%),MBEC value at 24 hours after overnight exposure to antibiotic ([1]; G-fragments 2%),MBEC value at 6 hours after overnight exposure to antibiotic ([1]; G-fragments 6%),MBEC value at 24 hours after overnight exposure to antibiotic ([1]; G-fragments 6%),"MBEC value at 6 hr after overnight exposure to antibiotic [2, 4]","MBEC value at 24 hr after overnight exposure to antibiotic [2, 4]","MBEC value at 6 hr after overnight exposure to antibiotic [2, 5]","MBEC value at 24 hr after overnight exposure to antibiotic [2, 5]","MBEC value at 6 hr after overnight exposure to antibiotic [3, 6]","MBEC value at 24 hr after overnight exposure to antibiotic [3, 6]","MBEC value at 6 hr after overnight exposure to antibiotic [3, 7]","MBEC value at 24 hr after overnight exposure to antibiotic [3, 7]","MBEC value at 6 hr after overnight exposure to antibiotic [3, 8]","MBEC value at 24 hr after overnight exposure to antibiotic [3, 8]","MBEC value at 6 hr after overnight exposure to antibiotic [3, 9]","MBEC value at 24 hr after overnight exposure to antibiotic [3, 9]"
"NCC[C@H](O)C(=O)N[C@@H]1C[C@H](N)[C@@H](O[C@H]2O[C@H](CN)[C@@H](O)[C@H](O)[C@H]2O)[C@H](O)[C@H]1O[C@H]1O[C@H](CO)[C@@H](O)[C@H](N)[C@H]1O [Amikacin, amikacin]",2048 µg/mL,>4096 µg/mL,1024 µg/mL,4096 µg/mL,512 µg/mL,4096 µg/mL,512 µg/mL,4096 µg/mL,64 µg/mL,>4096 µg/mL,16 µg/mL,4096 µg/mL,–,–,–,–,–,–,–,–
"CN(C)[C@@H]1C(O)=C(C(N)=O)C(=O)[C@@]2(O)C(O)=C3C(=O)c4c(O)cccc4[C@@](C)(O)[C@H]3[C@H](O)[C@@H]12 [Oxytetracycline, oxytetracycline]",512 µg/mL,2048 µg/mL,256 µg/mL,1024 µg/mL,128 µg/mL,1024 µg/mL,128 µg/mL,1024 µg/mL,512 µg/mL,1024 µg/mL,64 µg/mL,1024 µg/mL,512 µg/mL,4096 µg/mL,512 µg/mL,2048 µg/mL,256 µg/mL,2048 µg/mL,256 µg/mL,2048 µg/mL
"NC[C@H]1O[C@H](O[C@H]2[C@H](O)[C@@H](O[C@H]3O[C@H](CO)[C@@H](O)[C@H](N)[C@H]3O)[C@H](N)C[C@@H]2N)[C@H](N)C[C@@H]1O [Tobramycin, tobramycin]",–,–,–,–,–,–,–,–,32 µg/mL,512 µg/mL,8 µg/mL,256 µg/mL,–,–,–,–,–,–,–,–
